Measured values published in patent publication US9624206B2, “Antibacterial 1H-indazole and 1H-indole derivatives” (priority 2013, dated 2017).
Converted amounts (≈) assume the structure as drawn.

Tests used:
Experiment in all cases: Bacterial growth minimal inhibitory concentration (microdilution, CLSI M7-A7)
Type in all cases: cell-based
[1] = tested on: Acinetobacter baumannii T6474; details: multiply-resistant strain (in particular quinolone-resistant), cation-adjusted Mueller-Hinton Broth; for MIC: Acinetobacter baumannii, T6474
Protocol: (§1) Minimal Inhibitory Concentrations (MICs; mg/L) were determined in cation-adjusted Mueller-Hinton Broth by a microdilution method following the description given in “Methods for Dilution Antimicrobial Susceptibility Tests for Bacteria that Grow Aerobically”, Approved standard, 7th ed., Clinical and Laboratory Standards Institute (CLSI) Document M7-A7, Wayne, Pa., USA (2006).
(§2) All Example compounds were tested against several Gram-positive and Gram-negative bacteria. […] K. pneumoniae A-651 and Acinetobacter baumannii T6474 are multiply-resistant strains (in particular quinolone-resistant), while E. coli ATCC25922 and P. aeruginosa ATCC27853 are quinolone-sensitive strains.

E. coli ATCC25922 = details: quinolone-sensitive strain, cation-adjusted Mueller-Hinton Broth; for MIC: Escherichia coli, ATCC25922
Protocol: as §1, §2

K. pneumoniae A-651 = details: multiply-resistant strain (in particular quinolone-resistant), cation-adjusted Mueller-Hinton Broth; for MIC: Klebsiella pneumoniae, A651
Protocol: as §1, §2

P. aeruginosa ATCC27853 = details: quinolone-sensitive strain, cation-adjusted Mueller-Hinton Broth; for MIC: Pseudomonas aeruginosa, ATCC27853
Protocol: as §1, §2

Molecule | MIC [1] | MIC (E. coli ATCC25922) | MIC (K. pneumoniae A-651) | MIC (P. aeruginosa ATCC27853) | MIC for A. Baumannii T6474 [1] | MIC for E. coli ATCC25922 (E. coli ATCC25922) | MIC for K. Pneumoniae A-651 (K. pneumoniae A-651) | MIC for P. aeruginosa ATCC27853 (P. aeruginosa ATCC27853)
C[C@@](CCn1ncc2c(F)c(C#Cc3ccc(C4(O)COC4)cc3)ccc21)(C(=O)NO)S(C)(=O)=O [Example 30, (R)-4-(4-fluoro-5-((4-(3-hydroxyoxetan-3-yl)phenyl)ethynyl)-1H-indazol-1-yl)-N-hydroxy-2-methyl-2-(methylsulfonyl)butanamide] | 0.125 µg/mL (≈ 0.249 µM) | 0.25 µg/mL (≈ 0.498 µM) | 0.5 µg/mL (≈ 0.997 µM) | 1 µg/mL (≈ 1.99 µM) | – | – | – | –
C[C@@](CCn1ncc2c(F)c(C#CC#C[C@H]3C[C@@H]3CO)ccc21)(C(=O)NO)S(C)(=O)=O [Example 31, (R)-4-(4-fluoro-5-(((1S,2S)-2-(hydroxymethyl)cyclopropyl)buta-1,3-diyn-1-yl)-1H-indazol-1-yl)-N-hydroxy-2-methyl-2-(methylsulfonyl)butanamide] | 1 µg/mL (≈ 2.23 µM) | ≤ 0.063 µg/mL | ≤ 0.063 µg/mL | 0.5 µg/mL (≈ 1.12 µM) | – | – | – | –
C[C@@](CCn1ccc2cc(C#Cc3ccc([C@H]4C[C@@H]4CO)cc3)ccc21)(C(=O)NO)S(C)(=O)=O [Example 33, (R)—N-hydroxy-4-(5-((4-((1S,2S)-2-(hydroxymethyl)cyclopropyl)phenyl)ethynyl)-1H-indol-1-yl)-2-methyl-2-(methylsulfonyl)butanamide] | 0.125 µg/mL (≈ 0.26 µM) | 0.125 µg/mL (≈ 0.26 µM) | 0.25 µg/mL (≈ 0.52 µM) | 2 µg/mL (≈ 4.16 µM) | – | – | – | –
C[C@@](CCn1ncc2cc(C#CC#CC3(CO)CC3)ccc21)(C(=O)NO)S(C)(=O)=O [Example 34, (R)—N-hydroxy-4-(5-((1-(hydroxymethyl)cyclopropyl)buta-1,3-diyn-1-yl)-1H-indazol-1-yl)-2-methyl-2-(methylsulfonyl)butanamide] | 16 µg/mL (≈ 37.3 µM) | 0.25 µg/mL (≈ 0.582 µM) | 0.5 µg/mL (≈ 1.16 µM) | 1 µg/mL (≈ 2.33 µM) | – | – | – | –
C[C@H](O)c1ccc(C#Cc2ccc3c(ccn3CC[C@](C)(C(=O)NO)S(C)(=O)=O)c2)cc1 [Example 35, (R)—N-hydroxy-4-(5-((4-((S)-1-hydroxyethyl)phenyl)ethynyl)-1H-indol-1-yl)-2-methyl-2-(methylsulfonyl)butanamide] | 0.25 µg/mL (≈ 0.55 µM) | ≤ 0.063 µg/mL | 0.25 µg/mL (≈ 0.55 µM) | 2 µg/mL (≈ 4.4 µM) | – | – | – | –
C[C@@](CCn1ncc2c(F)c(C#Cc3ccc(CCO)cc3)ccc21)(C(=O)NO)S(C)(=O)=O [Example 36, (R)-4-(4-fluoro-5-((4-(2-hydroxyethyl)phenyl)ethynyl)-1H-indazol-1-yl)-N-hydroxy-2-methyl-2-(methylsulfonyl)butanamide] | ≤ 0.063 µg/mL | ≤ 0.063 µg/mL | 0.125 µg/mL (≈ 0.264 µM) | 1 µg/mL (≈ 2.11 µM) | – | – | – | –
C[C@@H](O)c1ccc(C#Cc2ccc3c(cnn3CC[C@](C)(C(=O)NO)S(C)(=O)=O)c2F)cc1 [Example 37, (R)-4-(4-fluoro-5-((4-((R)-1-hydroxyethyl)phenyl)ethynyl)-1H-indazol-1-yl)-N-hydroxy-2-methyl-2-(methylsulfonyl)butanamide] | ≤ 0.063 µg/mL | ≤ 0.063 µg/mL | 0.125 µg/mL (≈ 0.264 µM) | 1 µg/mL (≈ 2.11 µM) | – | – | – | –
C[C@@](CCn1ncc2c(F)c(C#CC#CC3(O)COC3)ccc21)(C(=O)NO)S(C)(=O)=O [Example 38, (R)-4-(4-fluoro-5-((3-hydroxyoxetan-3-yl)buta-1,3-diyn-1-yl)-1H-indazol-1-yl)-N-hydroxy-2-methyl-2-(methylsulfonyl)butanamide] | 32 µg/mL (≈ 71.2 µM) | 0.5 µg/mL (≈ 1.11 µM) | 1 µg/mL (≈ 2.22 µM) | 1 µg/mL (≈ 2.22 µM) | – | – | – | –
C[C@@](CCn1ncc2c(F)c(C#CC#CC3(CO)CC3)ccc21)(C(=O)NO)S(C)(=O)=O [Example 39, (R)-4-(4-fluoro-5-((1-(hydroxymethyl)cyclopropyl)buta-1,3-diyn-1-yl)-1H-indazol-1-yl)-N-hydroxy-2-methyl-2-(methylsulfonyl)butanamide] | 32 µg/mL (≈ 71.5 µM) | 0.25 µg/mL (≈ 0.559 µM) | 0.5 µg/mL (≈ 1.12 µM) | 2 µg/mL (≈ 4.47 µM) | – | – | – | –
C[C@@](CCn1ncc2c(F)c(C#Cc3ccc(C4(CO)COC4)cc3)ccc21)(C(=O)NO)S(C)(=O)=O [Example 40, (R)-4-(4-fluoro-5-((4-(3-(hydroxymethyl)oxetan-3-yl)phenyl)ethynyl)-1H-indazol-1-yl)-N-hydroxy-2-methyl-2-(methylsulfonyl)butanamide] | 0.5 µg/mL (≈ 0.97 µM) | 0.5 µg/mL (≈ 0.97 µM) | 1 µg/mL (≈ 1.94 µM) | 4 µg/mL (≈ 7.76 µM) | – | – | – | –
C[C@@](CCn1ncc2cc(C#CC#C[C@@H]3C[C@H]3CO)ccc21)(C(=O)NO)S(C)(=O)=O [Example 42, (R)—N-hydroxy-4-(5-(((1R,2R)-2-(hydroxymethyl)cyclopropyl)buta-1,3-diyn-1-yl)-1H-indazol-1-yl)-2-methyl-2-(methylsulfonyl)butanamide] | 32 µg/mL (≈ 74.5 µM) | ≤ 0.063 µg/mL | 0.25 µg/mL (≈ 0.582 µM) | 0.5 µg/mL (≈ 1.16 µM) | – | – | – | –
C[C@@](CCn1ccc2cc(C#Cc3ccc(CO)cc3F)ccc21)(C(=O)NO)S(C)(=O)=O [Example 43, (R)-4-(5-((2-fluoro-4-(hydroxymethyl)phenyl)ethynyl)-1H-indol-1-yl)-N-hydroxy-2-methyl-2-(methylsulfonyl)butanamide] | 16 µg/mL (≈ 34.9 µM) | 0.5 µg/mL (≈ 1.09 µM) | 0.5 µg/mL (≈ 1.09 µM) | 1 µg/mL (≈ 2.18 µM) | – | – | – | –
C[C@@](CCn1ccc2cc(C#Cc3ccc([C@@H](O)CO)cc3)ccc21)(C(=O)NO)S(C)(=O)=O [Example 44, (R)-4-(5-((4-((R)-1,2-dihydroxyethyl)phenyl)ethynyl)-1H-indol-1-yl)-N-hydroxy-2-methyl-2-(methylsulfonyl)butanamide] | 8 µg/mL (≈ 17 µM) | 0.125 µg/mL (≈ 0.266 µM) | 0.25 µg/mL (≈ 0.531 µM) | 2 µg/mL (≈ 4.25 µM) | – | – | – | –
C[C@@](CCn1ccc2cc(C#Cc3ccc(CCO)cc3)ccc21)(C(=O)NO)S(C)(=O)=O [Example 45, (R)—N-hydroxy-4-(5-((4-(2-hydroxyethyl)phenyl)ethynyl)-1H-indol-1-yl)-2-methyl-2-(methylsulfonyl)butanamide] | 8 µg/mL (≈ 17.6 µM) | ≤ 0.063 µg/mL | 0.25 µg/mL (≈ 0.55 µM) | 1 µg/mL (≈ 2.2 µM) | – | – | – | –
C[C@@](CCn1ncc2cc(C#CC#C[C@H]3C[C@@H]3CO)c(F)cc21)(C(=O)NO)S(C)(=O)=O [Example 46, (R)-4-(6-fluoro-5-(((1S,2S)-2-(hydroxymethyl)cyclopropyl)buta-1,3-diyn-1-yl)-1H-indazol-1-yl)-N-hydroxy-2-methyl-2-(methylsulfonyl)butanamide] | > 32 µg/mL | ≤ 0.063 µg/mL | 0.125 µg/mL (≈ 0.279 µM) | 1 µg/mL (≈ 2.23 µM) | – | – | – | –
C[C@@](CCn1ncc2cc(C#Cc3ccc(CCO)cc3)c(F)cc21)(C(=O)NO)S(C)(=O)=O [Example 47, (R)-4-(6-fluoro-5-((4-(2-hydroxyethyl)phenyl)ethynyl)-1H-indazol-1-yl)-N-hydroxy-2-methyl-2-(methylsulfonyl)butanamide] | 0.25 µg/mL (≈ 0.528 µM) | ≤ 0.063 µg/mL | 0.25 µg/mL (≈ 0.528 µM) | 2 µg/mL (≈ 4.22 µM) | – | – | – | –
C[C@@](CCn1ncc2cc(C#CC#CC[C@@H](O)CO)ccc21)(C(=O)NO)S(C)(=O)=O [Example 50, (R)-4-(5-((R)-6,7-dihydroxyhepta-1,3-diyn-1-yl)-1H-indazol-1-yl)-N-hydroxy-2-methyl-2-(methylsulfonyl)butanamide] | 32 µg/mL (≈ 73.8 µM) | 4 µg/mL (≈ 9.23 µM) | 4 µg/mL (≈ 9.23 µM) | 2 µg/mL (≈ 4.61 µM) | – | – | – | –
C[C@@](CCn1ncc2cc(C#CC#C[C@@H]3C[C@@H](O)[C@@H](O)C3)ccc21)(C(=O)NO)S(C)(=O)=O [Example 51, (R)-4-(5-(((1s,3R,4S)-3,4-dihydroxycyclopentyl)buta-1,3-diyn-1-yl)-1H-indazol-1-yl)-N-hydroxy-2-methyl-2-(methylsulfonyl)butanamide] | – | – | – | – | 4 µg/mL | 0.5 µg/mL | 1 µg/mL | 1 µg/mL
C[C@@](CCn1ncc2cc(C#Cc3ccc(C4(CO)CC4)cc3)ccc21)(C(=O)NO)S(C)(=O)=O [Example 52, (R)—N-hydroxy-4-(5-((4-(1-(hydroxymethyl)cyclopropyl)phenyl)ethynyl)-1H-indazol-1-yl)-2-methyl-2-(methylsulfonyl)butanamide] | 0.125 µg/mL (≈ 0.26 µM) | ≤ 0.063 µg/mL | 0.25 µg/mL (≈ 0.519 µM) | 2 µg/mL (≈ 4.15 µM) | – | – | – | –
C[C@@](CCn1ncc2cc(C#CC#CC34CC(CO)(C3)C4)ccc21)(C(=O)NO)S(C)(=O)=O [Example 53, (R)—N-hydroxy-4-(5-((3-(hydroxymethyl)bicyclo[1.1.1]pentan-1-yl)buta-1,3-diyn-1-yl)-1H-indazol-1-yl)-2-methyl-2-(methylsulfonyl)butanamide] | 1 µg/mL (≈ 2.2 µM) | 0.125 µg/mL (≈ 0.274 µM) | 0.25 µg/mL (≈ 0.549 µM) | 1 µg/mL (≈ 2.2 µM) | – | – | – | –
C[C@@](CCn1ncc2cc(C#CC#CC3(CN)CC3)ccc21)(C(=O)NO)S(C)(=O)=O [Example 54, (R)-4-(5-((1-(aminomethyl)cyclopropyl)buta-1,3-diyn-1-yl)-1H-indazol-1-yl)-N-hydroxy-2-methyl-2-(methylsulfonyl)butanamide] | > 32 µg/mL | 8 µg/mL (≈ 18.7 µM) | 16 µg/mL (≈ 37.3 µM) | 8 µg/mL (≈ 18.7 µM) | – | – | – | –
(R)—N-hydroxy-4-(5-((3-hydroxythietan-3-yl)buta-1,3-diyn-1-yl)-1H-indol-1-yl)-2-methyl-2-(methylsulfonyl)butanamide [Example 32] | – | – | – | – | 16 µg/mL | 0.125 µg/mL | 0.25 µg/mL | 2 µg/mL
